Laboratory results taken from ChEMBL document CHEMBL5120915, “Synthesis of Sulfur-Containing Analogues of Hedychenone, a Labdane Diterpenoid from Hedychium spicatum” (J Nat Prod, 2022).
Converted amounts (≈) assume the structure as drawn.

How the values were obtained:
[1] = Inhibition of Saccharomyces cerevisiae alpha-glucosidase using pNPG as substrate preincubated for 5 mins followed by pNPG addition and measured after 10 mins by microplate reader method
Staphylococcus aureus = test: Antibacterial activity against Staphylococcus aureus MTCC 96 assessed as zone of inhibition preincubated for 2 to 3 hrs followed by 12 to 24 hrs incubation at aerobic condition by well diffusion method; assay type: functional; details: time 14-27 hrs

| Compound | IC50 [1] [µg/mL] | inhibition zone (IZ) (Staphylococcus aureus) [mm] |
| --- | --- | --- |
| CC1=CC(=O)[C@H]2C(C)(C)CCC[C@]2(C)[C@H]1/C=C/c1ccoc1SCc1ccc(F)cc1 | 9.7 (≈ 22.1 µM) | – |
| CC1=CC(=O)[C@H]2C(C)(C)CCC[C@]2(C)[C@H]1/C=C/c1ccoc1Sc1ccc(Cl)cc1 | 9.7 (≈ 22 µM) | – |
| CC1=CC(=O)[C@H]2C(C)(C)CCC[C@]2(C)[C@H]1/C=C/c1ccoc1Sc1cccc(Br)c1 | 12.23 (≈ 25.2 µM) | – |
| CC1=CC(=O)[C@H]2C(C)(C)CCC[C@]2(C)[C@H]1/C=C/c1ccoc1SCc1ccc(Cl)cc1 | 9.7 (≈ 21.3 µM) | – |
| CC1=CC(=O)[C@H]2C(C)(C)CCC[C@]2(C)[C@H]1/C=C/c1ccoc1Sc1ccccc1Br | 13.01 (≈ 26.8 µM) | – |
| CC1=CC(=O)[C@H]2C(C)(C)CCC[C@]2(C)[C@H]1/C=C/c1ccoc1Sc1cccc(C)c1 | 9.7 (≈ 23.1 µM) | – |
| CC1=CC(=O)[C@H]2C(C)(C)CCC[C@]2(C)[C@H]1/C=C/c1ccoc1Sc1ccc2ccccc2c1 | 9.7 (≈ 21.2 µM) | – |
| CC1=CC(=O)[C@H]2C(C)(C)CCC[C@]2(C)[C@H]1/C=C/c1ccoc1Sc1ccc(Br)cc1 | 9.7 (≈ 20 µM) | – |
| CC1=CC(=O)[C@H]2C(C)(C)CCC[C@]2(C)[C@H]1/C=C/c1ccoc1Sc1cccc(Cl)c1 | 9.7 (≈ 22 µM) | 6 |
| CC1=CC(=O)[C@H]2C(C)(C)CCC[C@]2(C)[C@H]1/C=C/c1ccoc1Sc1ccccc1 | 13.17 (≈ 32.4 µM) | – |
| CC1=CC(=O)[C@H]2C(C)(C)CCC[C@]2(C)[C@H]1/C=C/c1ccoc1SCc1ccccc1 | 13.34 (≈ 31.7 µM) | – |
| CC1=CC(=O)[C@H]2C(C)(C)CCC[C@]2(C)[C@H]1/C=C/c1ccoc1Sc1ccccc1Cl | 9.7 (≈ 22 µM) | – |
| CC1=CC(=O)[C@H]2C(C)(C)CCC[C@]2(C)[C@H]1/C=C/c1ccoc1Sc1ccccc1F | 12.15 (≈ 28.6 µM) | – |
| CC1=CC(=O)[C@H]2C(C)(C)CCC[C@]2(C)[C@H]1/C=C/c1ccoc1Sc1ccc(Cl)cc1Cl | 9.7 (≈ 20.4 µM) | – |
| CSc1ccc(Sc2occc2/C=C/[C@H]2C(C)=CC(=O)[C@H]3C(C)(C)CCC[C@]23C)cc1 | 9.7 (≈ 21.4 µM) | – |
| CC1=CC(=O)[C@H]2C(C)(C)CCC[C@]2(C)[C@H]1/C=C/c1ccoc1Sc1ccccc1C | 9.7 (≈ 23.1 µM) | – |
| C[C@H]1O[C@H](O[C@H]2[C@H](O)[C@@H](O)[C@@H](O[C@H]3[C@H](O)[C@@H](O)C(O)O[C@@H]3CO)O[C@@H]2CO)[C@H](O)[C@@H](O)[C@@H]1N[C@H]1C=C(CO)[C@@H](O)[C@H](O)[C@H]1O (stereo partly specified) [ACARBOSE] | 3.95 (≈ 6.12 µM) | – |
| CC1=CC(=O)[C@H]2C(C)(C)CCC[C@]2(C)[C@H]1/C=C/c1ccoc1Sc1ccc(F)cc1 | 9.7 (≈ 22.8 µM) | – |
| CC1=CC(=O)[C@H]2C(C)(C)CCC[C@]2(C)[C@H]1/C=C/c1ccoc1Sc1cccc(F)c1 | 9.7 (≈ 22.8 µM) | – |
| COc1ccccc1Sc1occc1/C=C/[C@H]1C(C)=CC(=O)[C@H]2C(C)(C)CCC[C@]12C | 11.82 (≈ 27.1 µM) | – |
